Each structure is given as a SMILES string.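 Grown in 96-well plates, cells were treated for 48 hours with each compound at five concentrations. Insufficient inhibition: endpoint recorded as highest concentration tested. Definition used: TGI = concentration required for complete inhibition of growth.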 *1 amine or outer side, *2 acyl side, *3 side chain or, on linkers, in order; H or OH if unused. Where a SMILES comes first, the peptide text is derived from it. Bridges are numbered along the chain shown (N, C = ends). [ ]: non-standard residue; d: D form. ξ: configuration not given here. X35 = CC[C@H](C)[C@@H](N[*:1])[C@@H](O)CC(=O)O[C@H](C(=O)[C@H](C)C(=O)[*:2])C(C)C; NMeY = CN[C@@H](Cc1ccc(O)cc1)C(=O)O; dNMeL = CN[C@H](CC(C)C)C(=O)O; ξΔPro = O=C(O)C1C=CCN1 A value given as a limit tells only on which side of the number the result lay.

13 compounds from PubChem BioAssay (NCI) can be followed below.

Common to all, as to assay: inhibition of tumour cell growth, NCI panel, 48 h
Assay [1] has as its system K-562 leukemia.
Assay [2] deals with OVCAR-5 ovarian.
The test system of assay [3] is SF-295 CNS.
The test system of assay [4] is HCT-116 colon.
Assay [5] relates to UACC-257 melanoma.
The test system of assay [6] is RXF 393 renal.
In assay [7] the test system is MDA-MB-435.
Assay [8] deals with SK-MEL-2 melanoma.
The subject of assay [9] is BT-549 breast.
The test system of assay [10] is PC-3 prostate.

Take `COc1cc2oc(-c3ccc4c(c3)OCO4)c(OC)c(=O)c2c(O)c1OC`: the TGI in [1], in assay [2], in [3], in assay [4], in assay [5] and in assay [6] was more than 50 µM each time. Further, the TGI in [7], in assay [8], in assay [9] and in assay [10] was more than 50 µM throughout.

Take `COC(=O)[C@@H]1C=C[C@H](NC(C)=O)C1`: the TGI in assay [1], in [2], in [3], in [4], in assay [5] and in [6] was more than 100 µM throughout. Moreover, the TGI in [7], in assay [8], in assay [9] and in [10] was more than 100 µM each time.

In the case of `O=C(O)CCSC1=NCCN1`, the TGI in assay [1], in assay [2], in assay [3], in [4], in [5] and in [6] was more than 100 µM each time. The TGI in [7], in assay [8], in [9] and in assay [10] was more than 100 µM each time.

As for `C[C@]12CC[C@H]3[C@@H](CCC4=C(Br)C(=O)C=C[C@@]43O)[C@@H]1CCC2=O`, the TGI is more than 100 µM in assay [1]; more than 100 µM in assay [2]; more than 100 µM in assay [3]; 80.1 µM in assay [4]; 63.8 µM in assay [5]; 57.1 µM in assay [6]. The TGI is more than 100 µM in assay [7], more than 100 µM in assay [8], 81.1 µM in assay [9] and more than 100 µM in [10].

Turning to `Cc1ccc(NC2=N/C(=C/c3ccco3)C(Cl)=N2)cc1`, the TGI in [1], in assay [2], in assay [3], in [4], in assay [5] and in assay [6] was more than 100 µM each time. Also, the TGI in assay [7], in assay [8], in [9] and in [10] was more than 100 µM throughout.

Take `CNC(=O)N(CCC#N)CCCN(C(=O)N(C)C)c1ccccc1`: the TGI in [1], in [2], in assay [3], in [4], in assay [5] and in assay [6] was more than 100 µM each time. In addition, the TGI in assay [7], in assay [8], in [9] and in assay [10] was more than 100 µM each time.

With `COC(=O)c1cc(C)ccc1/C=C1\Cc2c(C)cc(C)cc2C1=O`, the TGI in assay [1] was more than 100 µM; in assay [2], more than 100 µM; in assay [3], 33.1 µM; in assay [4], more than 100 µM; in [5], more than 30.1 µM; in assay [6], 44.5 µM. Besides, the TGI in [7] is more than 100 µM; in assay [8] it was 63.7 µM; in assay [9], more than 75.7 µM; in [10] it was more than 100 µM.

Consider `O=[N+]([O-])c1ccc2c(c1)n1c(N3CCCC3)[n+]3ccccc3c1c1c3cccc[n+]3c(N3CCCC3)n21`, for which the TGI in assay [1] was 88.2 µM; in [2] it was more than 100 µM; in [3], more than 100 µM; in [4], more than 100 µM; in assay [5], more than 100 µM; in assay [6], more than 100 µM. Further, the TGI in assay [7], in assay [8], in assay [9] and in assay [10] was more than 100 µM each time.

With `COc1cccc(NC(=O)CC(=O)N2N=C(C)C(N=Nc3ccc(C(=O)O)cc3)C2=O)c1` (stereo not given), the TGI in assay [1], in assay [2], in assay [3], in assay [4], in assay [5] and in [6] was more than 100 µM each time. Moreover, the TGI in assay [7], in [8], in assay [9] and in assay [10] was more than 100 µM each time.

As for `COC(=O)c1cc(C)ccc1C1CN=NC12Cc1c(C)cc(C)cc1C2=O` (stereo not given), the TGI in assay [1] was more than 100 µM; in assay [2] it was more than 100 µM; in [3] it was 97.4 µM; in assay [4], 28.6 µM; in assay [5], 69.7 µM; in assay [6], 72.5 µM. The TGI was more than 100 µM in [7], 33.1 µM in assay [8], 69.3 µM in [9] and more than 100 µM in [10].

As for `O=[N+]([O-])c1cc(F)ccc1Sc1ccccc1`, the TGI in [1], in assay [2], in assay [3], in assay [4], in assay [5] and in [6] was more than 10 µM throughout. The TGI in assay [7], in assay [8], in [9] and in [10] was more than 10 µM in each case.

Regarding `COC(=O)/C=c1/c2ccccc2n2c1c1ccccc1[n+]2C`, the TGI is more than 100 µM in assay [1]; 17.6 µM in assay [2]; 5.63 µM in [3]; 10.1 µM in assay [4]; 8.08 µM in assay [5]; 17.4 µM in assay [6]. Further, the TGI in assay [7] stood at 18.8 µM; in assay [8], 11.6 µM; in assay [9] it was 14.7 µM; in assay [10], 9.79 µM.

As to `CC[C@H](C)[C@H]1NC(=O)[C@@H](NC(=O)[C@@H](CC(C)C)N(C)C(=O)C2C=CCN2)[C@@H](C)OC(=O)[C@H](Cc2ccc(OC)cc2)N(C)C(=O)[C@@H]2CCCN2C(=O)[C@H](CC(C)C)NC(=O)[C@@H](C)C(=O)[C@H](C(C)C)OC(=O)C[C@@H]1O` (stereo not given in full) (H-[ξΔPro][dNMeL]T[X35]LP[NMeY](Me); ester 3-C), the TGI in assay [1] was more than 50 µM; in [2], more than 50 µM; in assay [3], 0.055 µM; in assay [4], 5.41 µM; in assay [5], 0.239 µM; in assay [6], 0.0285 µM. Besides, the TGI in assay [7] was 0.0687 µM; in [8] it was 0.0115 µM; in assay [9], 0.345 µM; in assay [10] it was 1.06 µM.
